From ChEMBL document CHEMBL1158911, “Isolation and Structure Determination of Inostamycin, a Novel Inhibitor of Phosphatidylinositol Turnover” (J Nat Prod, 1990)
In brackets after ≈: the same amount, converted by molar mass. Activity calls are given as the source filed them. The rule behind the calls is not given here.

System: A-431
Assay: Inhibition of EGF-induced [3H]inositol incorporation in to phosphatidylinositol in human A431 cells after 60 mins by liquid scintillation spectrophotometry
Format: functional, cell-based

IC50 [µg/mL]	SMILES	Activity
	CC[C@@]1([C@@H]2O[C@@H]([C@H]3O[C@@](O)(CO)[C@H](C)C[C@@H]3C)C[C@@H]2C)CC[C@H]([C@]2(C)CC[C@]3(C[C@H](O)[C@@H](C)[C@@H]([C@@H](C)[C@@H](OC)[C@H](C)C(=O)O)O3)O2)O1	inactive
	CC[C@@H](C(=O)[C@@H](C)[C@@H](O)[C@@H](C)[C@H]1O[C@@H](CC(=O)OO)[C@H](C)C[C@@H]1C)[C@H]1O[C@](C)([C@]2(O)O[C@](CC)([C@@H](O)CC)C[C@H]2C)C[C@@H]1C	Active
0.5 (≈ 0.713 µM)	CCC[C@H](O)[C@@]1(CC)C[C@@H](C)[C@](O)([C@]2(C)C[C@H](C)[C@@H]([C@@H](CC)C(=O)[C@@H](C)[C@@H](O)[C@H](C)[C@H]3O[C@@](O)([C@H](CC)C(=O)O)[C@@H](C)[C@H](O)[C@H]3CC)O2)O1 [INOSTAMYCIN]	
